According to ChEMBL document CHEMBL4138174, “Design and synthesis of novel C14-urea-tetrandrine derivatives with potent anti-cancer activity” (Eur J Med Chem, 2018):

Columns and labels:
Type in all cases: functional, cell-based
HEL = assay: Cytotoxicity against human HEL cells assessed as reduction in cell viability after 48 hrs by MTT assay
K562 = assay: Cytotoxicity against human K562 cells assessed as reduction in cell viability after 48 hrs by MTT assay
MDA-MB-231 = assay: Cytotoxicity against human MDA-MB-231 cells assessed as reduction in cell viability after 48 hrs by MTT assay
PC-3 = assay: Cytotoxicity against human PC3 cells assessed as reduction in cell viability after 48 hrs by MTT assay
[1] = Cytotoxicity against human WM9 cells assessed as reduction in cell viability after 48 hrs by MTT assay

Structure (SMILES) | IC50 (HEL; Homo sapiens, HEL, 48 h) | IC50 (K562; Homo sapiens, K562, 48 h) | IC50 (MDA-MB-231; Homo sapiens, MDA-MB-231, 48 h) | IC50 (PC-3; Homo sapiens, PC-3, 48 h) | IC50 ([1]; Homo sapiens, WM9, 48 h) | IC50 (HEL; hel) | IC50 (K562; k562) | IC50 (MDA-MB-231; mda-mb-231) | IC50 (PC-3; pc-3) | IC50 [1]
COc1ccc(NC(=O)Nc2cc(OC)c3cc2C[C@H]2c4c(cc(OC)c(OC)c4Oc4cc5c(cc4OC)CCN(C)[C@H]5Cc4ccc(cc4)O3)CCN2C)cc1 | 6.65 µM | 3.22 µM | 10.2 µM | 4.67 µM | 5.01 µM |  |  |  |  | 
COc1cc(NC(=O)Nc2ccc(OC(F)(F)F)cc2)c2cc1Oc1ccc(cc1)C[C@H]1c3cc(c(OC)cc3CCN1C)Oc1c(OC)c(OC)cc3c1[C@H](C2)N(C)CC3 | 4.02 µM | 1.25 µM | 4.95 µM | 0.74 µM | 3.91 µM |  |  |  |  | 
COc1cc(NC(=O)N2c3ccccc3Sc3ccccc32)c2cc1Oc1ccc(cc1)C[C@H]1c3cc(c(OC)cc3CCN1C)Oc1c(OC)c(OC)cc3c1[C@H](C2)N(C)CC3 | 3.32 µM | 2.49 µM | 4.14 µM | 2.95 µM | 3.21 µM |  |  |  |  | 
COc1cc(NC(=O)NCCCl)c2cc1Oc1ccc(cc1)C[C@H]1c3cc(c(OC)cc3CCN1C)Oc1c(OC)c(OC)cc3c1[C@H](C2)N(C)CC3 | 9.34 µM | 6.24 µM | 13.3 µM | 4.91 µM | 4.18 µM |  |  |  |  | 
COc1cc(NC(=O)N2CCN(S(C)(=O)=O)C2=O)c2cc1Oc1ccc(cc1)C[C@H]1c3cc(c(OC)cc3CCN1C)Oc1c(OC)c(OC)cc3c1[C@H](C2)N(C)CC3 | 5.51 µM | 3.06 µM | 4.33 µM | 2.17 µM | 3.76 µM |  |  |  |  | 
CCCCNC(=O)Nc1cc(OC)c2cc1C[C@H]1c3c(cc(OC)c(OC)c3Oc3cc4c(cc3OC)CCN(C)[C@H]4Cc3ccc(cc3)O2)CCN1C |  |  |  |  |  | 2.67 µM | 2.77 µM | 5.28 µM | 0.68 µM | 3.66 µM
COc1cc(NC(=O)Nc2ccc(C(F)(F)F)cc2)c2cc1Oc1ccc(cc1)C[C@H]1c3cc(c(OC)cc3CCN1C)Oc1c(OC)c(OC)cc3c1[C@H](C2)N(C)CC3 | 4.74 µM | 1.74 µM | 5.35 µM | 5.2 µM | 4.15 µM |  |  |  |  | 
CCNC(=O)Nc1cc(OC)c2cc1C[C@H]1c3c(cc(OC)c(OC)c3Oc3cc4c(cc3OC)CCN(C)[C@H]4Cc3ccc(cc3)O2)CCN1C | 4.02 µM | 3.2 µM | 5.83 µM | 0.98 µM | 2.31 µM |  |  |  |  | 
CCCCNC(=S)Nc1cc(OC)c2cc1C[C@H]1c3c(cc(OC)c(OC)c3Oc3cc4c(cc3OC)CCN(C)[C@H]4Cc3ccc(cc3)O2)CCN1C | 3.68 µM | 2.39 µM | 5.66 µM |  | 4.27 µM |  |  |  | 3.03 µM | 
COc1cc(NC(=O)Nc2ccc(C)cc2)c2cc1Oc1ccc(cc1)C[C@H]1c3cc(c(OC)cc3CCN1C)Oc1c(OC)c(OC)cc3c1[C@H](C2)N(C)CC3 | 8.08 µM | 2.89 µM | 7.28 µM | 3.85 µM | 5.13 µM |  |  |  |  | 
COc1cc(NC(=O)NC2CCCCC2)c2cc1Oc1ccc(cc1)C[C@H]1c3cc(c(OC)cc3CCN1C)Oc1c(OC)c(OC)cc3c1[C@H](C2)N(C)CC3 | 14.8 µM | 5.56 µM | 16.6 µM | 3.78 µM | 10.4 µM |  |  |  |  | 
COc1cc(NC(=S)Nc2ccc(F)cc2)c2cc1Oc1ccc(cc1)C[C@H]1c3cc(c(OC)cc3CCN1C)Oc1c(OC)c(OC)cc3c1[C@H](C2)N(C)CC3 |  |  |  |  |  | 1.38 µM | 0.88 µM | 1.56 µM | 0.33 µM | 1.63 µM
COc1cc(NC(=O)NCCc2ccccc2)c2cc1Oc1ccc(cc1)C[C@H]1c3cc(c(OC)cc3CCN1C)Oc1c(OC)c(OC)cc3c1[C@H](C2)N(C)CC3 | 8.93 µM | 4.94 µM | 9.76 µM | 5.9 µM | 7.68 µM |  |  |  |  | 
